Values of other authors as cited in patent US20060194715A1, “Proteins encoded by ble genes and antibiotics from the bleomycin family” (priority 2002, published 2006).
“And” between values parts separate entries of the source, which are not always exact repeats. Equal values may be shown once. Read-outs that look alike come from different tables or passages of the source.

Biological target: T1, Sh ble protein (Streptoalloteichus hindustanus, UniProt P17493)
T1 sequence (P17493 1-124): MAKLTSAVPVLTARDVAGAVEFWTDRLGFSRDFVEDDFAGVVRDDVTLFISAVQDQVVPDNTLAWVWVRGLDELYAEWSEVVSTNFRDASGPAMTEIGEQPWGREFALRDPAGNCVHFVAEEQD

Q: Which Kd (first bleomycin molecule bound, read-out: first affinity (single molecule of bleomycin bound to Sh ble dimer)) does the source give for bleomycin here?
A: Its Kd is roughly 600 nM.

Q: And the Kd (second bleomycin molecule bound, read-out: second affinity (two molecules of bleomycin bound to Sh ble dimer))?
A: The Kd was ~100 nM and ≤ 100 nM.
